Assay results published in ChEMBL document CHEMBL5233266, “β-Carboline as a Privileged Scaffold for Multitarget Strategies in Alzheimer's Disease Therapy” (J Med Chem, 2021).
Blank lines part the entries; values can stand above or below the molecule they belong to.

Experiments:
[1] = target: Glutamate receptor ionotropic, NMDA 2B (Homo sapiens, UniProt Q05586+Q13224); test: Inhibition of NMDA receptor NR2B subunit (unknown origin)
[2] = target: T1, Acetylcholinesterase (Homo sapiens, UniProt P22303); test: Inhibition of AChE (unknown origin) by Ellman's method
T1 sequence (P22303 whole entry): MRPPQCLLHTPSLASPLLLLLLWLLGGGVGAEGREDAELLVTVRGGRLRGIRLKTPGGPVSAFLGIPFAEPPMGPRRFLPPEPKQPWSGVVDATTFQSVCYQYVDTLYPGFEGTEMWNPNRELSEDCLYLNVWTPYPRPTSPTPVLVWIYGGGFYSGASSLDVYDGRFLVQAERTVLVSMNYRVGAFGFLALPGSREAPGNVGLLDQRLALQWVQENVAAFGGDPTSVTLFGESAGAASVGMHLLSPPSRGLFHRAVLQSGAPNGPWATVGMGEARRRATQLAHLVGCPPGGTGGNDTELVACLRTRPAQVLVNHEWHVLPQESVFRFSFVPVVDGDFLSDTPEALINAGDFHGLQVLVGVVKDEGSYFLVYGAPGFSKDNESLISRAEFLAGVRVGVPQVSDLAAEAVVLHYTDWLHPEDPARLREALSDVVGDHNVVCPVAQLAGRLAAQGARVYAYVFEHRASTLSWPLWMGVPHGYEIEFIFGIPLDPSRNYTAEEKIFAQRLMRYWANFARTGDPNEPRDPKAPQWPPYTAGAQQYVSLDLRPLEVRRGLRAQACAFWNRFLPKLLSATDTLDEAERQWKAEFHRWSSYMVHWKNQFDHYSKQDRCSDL

[3] = target: T1, Acetylcholinesterase; test: Inhibition of AChE (unknown origin) incubated for 40 mins by Ellman's method
[4] = target: T2, 5-hydroxytryptamine receptor 2C (Homo sapiens, UniProt P28335); test: Binding affinity to 5-HT2C (unknown origin) assessed as inhibition constant
T2 sequence (P28335 whole entry): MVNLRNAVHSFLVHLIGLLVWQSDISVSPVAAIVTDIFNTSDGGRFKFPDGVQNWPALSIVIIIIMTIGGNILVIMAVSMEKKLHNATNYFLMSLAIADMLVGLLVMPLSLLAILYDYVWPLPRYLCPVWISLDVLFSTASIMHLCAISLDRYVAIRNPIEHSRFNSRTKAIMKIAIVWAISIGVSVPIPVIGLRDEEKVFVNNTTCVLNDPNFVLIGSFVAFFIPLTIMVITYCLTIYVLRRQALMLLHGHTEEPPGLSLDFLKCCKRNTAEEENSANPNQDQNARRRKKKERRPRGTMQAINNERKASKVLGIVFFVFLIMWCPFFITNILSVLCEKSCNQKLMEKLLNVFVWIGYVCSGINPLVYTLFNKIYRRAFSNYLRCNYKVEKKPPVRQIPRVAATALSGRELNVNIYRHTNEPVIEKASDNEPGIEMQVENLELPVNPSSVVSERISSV

[5] = target: 5-hydroxytryptamine receptor 2A (Rattus norvegicus, UniProt P14842); test: Displacement of [3H]-ketanserin from rat 5-HT2A expressed in mouse NIH/3T3 cells assessed as inhibition constant by Cheng-Prusoff equation analysis; assay type: cell-based
Chain of 5-hydroxytryptamine receptor 2A (P14842 whole entry): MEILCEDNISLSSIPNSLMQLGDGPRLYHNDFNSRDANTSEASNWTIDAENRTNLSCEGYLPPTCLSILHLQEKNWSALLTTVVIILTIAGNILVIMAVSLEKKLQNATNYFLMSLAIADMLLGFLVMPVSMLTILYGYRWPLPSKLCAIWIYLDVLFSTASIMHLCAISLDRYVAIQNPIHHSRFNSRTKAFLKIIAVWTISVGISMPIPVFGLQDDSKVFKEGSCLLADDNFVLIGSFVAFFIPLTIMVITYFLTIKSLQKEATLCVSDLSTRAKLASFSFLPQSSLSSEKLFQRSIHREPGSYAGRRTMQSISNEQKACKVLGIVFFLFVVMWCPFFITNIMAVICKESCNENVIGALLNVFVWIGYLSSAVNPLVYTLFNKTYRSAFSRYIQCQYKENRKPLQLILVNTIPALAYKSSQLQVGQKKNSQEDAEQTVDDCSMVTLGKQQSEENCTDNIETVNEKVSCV

[6] = target: T1, Acetylcholinesterase; test: Inhibition of AChE (unknown origin)
[7] = target: Cholinesterase (Homo sapiens, UniProt P06276); test: Inhibition of BuChE (unknown origin)
Chain of Cholinesterase (P06276 whole entry): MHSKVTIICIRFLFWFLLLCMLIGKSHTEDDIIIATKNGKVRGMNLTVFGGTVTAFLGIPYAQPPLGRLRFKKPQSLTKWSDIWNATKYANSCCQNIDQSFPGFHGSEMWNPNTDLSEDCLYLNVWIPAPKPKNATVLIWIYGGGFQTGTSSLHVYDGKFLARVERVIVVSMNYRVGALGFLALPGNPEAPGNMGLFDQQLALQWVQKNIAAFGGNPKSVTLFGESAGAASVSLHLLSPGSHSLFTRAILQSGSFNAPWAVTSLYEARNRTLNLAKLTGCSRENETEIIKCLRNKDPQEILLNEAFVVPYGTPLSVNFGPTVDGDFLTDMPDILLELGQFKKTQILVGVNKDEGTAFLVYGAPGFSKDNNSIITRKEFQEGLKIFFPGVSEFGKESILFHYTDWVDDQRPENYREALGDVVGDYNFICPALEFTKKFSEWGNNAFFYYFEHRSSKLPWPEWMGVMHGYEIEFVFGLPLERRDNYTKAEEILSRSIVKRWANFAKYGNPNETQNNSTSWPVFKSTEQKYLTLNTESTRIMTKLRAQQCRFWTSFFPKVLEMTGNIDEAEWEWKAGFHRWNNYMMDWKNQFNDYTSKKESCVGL

[8] = target: 5-hydroxytryptamine receptor 5A (Homo sapiens, UniProt P47898); test: Binding affinity to 5-HT5AR (unknown origin) assessed as inhibition constant
Chain of 5-hydroxytryptamine receptor 5A (P47898 whole entry): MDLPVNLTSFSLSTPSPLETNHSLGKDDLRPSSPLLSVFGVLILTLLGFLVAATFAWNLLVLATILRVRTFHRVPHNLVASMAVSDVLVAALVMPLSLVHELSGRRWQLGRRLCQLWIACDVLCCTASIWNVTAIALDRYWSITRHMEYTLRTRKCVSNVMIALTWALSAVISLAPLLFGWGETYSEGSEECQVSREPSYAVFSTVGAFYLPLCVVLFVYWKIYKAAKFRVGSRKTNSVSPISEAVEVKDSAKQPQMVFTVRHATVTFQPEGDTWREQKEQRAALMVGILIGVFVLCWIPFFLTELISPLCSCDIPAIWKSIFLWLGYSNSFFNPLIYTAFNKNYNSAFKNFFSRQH

[9] = target: 5-hydroxytryptamine receptor 2B (Homo sapiens, UniProt P41595); test: Binding affinity to 5-HT2BR (unknown origin) assessed as inhibition constant
Chain of 5-hydroxytryptamine receptor 2B (P41595 whole entry): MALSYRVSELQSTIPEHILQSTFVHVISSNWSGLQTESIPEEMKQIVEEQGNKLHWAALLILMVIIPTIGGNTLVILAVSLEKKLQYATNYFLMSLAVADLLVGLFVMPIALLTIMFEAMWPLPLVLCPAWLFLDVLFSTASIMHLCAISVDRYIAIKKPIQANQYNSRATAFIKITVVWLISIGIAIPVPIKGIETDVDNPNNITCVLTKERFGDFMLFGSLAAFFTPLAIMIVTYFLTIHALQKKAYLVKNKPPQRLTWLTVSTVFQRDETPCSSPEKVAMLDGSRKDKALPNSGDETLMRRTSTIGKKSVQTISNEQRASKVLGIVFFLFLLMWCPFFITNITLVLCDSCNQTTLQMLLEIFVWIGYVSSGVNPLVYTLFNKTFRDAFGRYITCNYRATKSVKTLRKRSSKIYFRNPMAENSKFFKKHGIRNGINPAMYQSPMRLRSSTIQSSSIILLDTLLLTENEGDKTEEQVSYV

[10] = target: GABA-A receptor; anion channel; test: Displacement of [3H]flunitrazepam from GABAA (unknown origin ) receptor by radioligand binding assay; assay type: protein-complex assay, Homo sapiens
[11] = target: T3, Gamma-aminobutyric acid receptor subunit alpha-1 (Homo sapiens, UniProt P14867); test: Binding affinity to human recombinant GABAA alpha1 receptor assessed as inhibition constant incubated for 1 hrs by liquid scintillation counting analysis
T3 sequence (P14867 whole entry): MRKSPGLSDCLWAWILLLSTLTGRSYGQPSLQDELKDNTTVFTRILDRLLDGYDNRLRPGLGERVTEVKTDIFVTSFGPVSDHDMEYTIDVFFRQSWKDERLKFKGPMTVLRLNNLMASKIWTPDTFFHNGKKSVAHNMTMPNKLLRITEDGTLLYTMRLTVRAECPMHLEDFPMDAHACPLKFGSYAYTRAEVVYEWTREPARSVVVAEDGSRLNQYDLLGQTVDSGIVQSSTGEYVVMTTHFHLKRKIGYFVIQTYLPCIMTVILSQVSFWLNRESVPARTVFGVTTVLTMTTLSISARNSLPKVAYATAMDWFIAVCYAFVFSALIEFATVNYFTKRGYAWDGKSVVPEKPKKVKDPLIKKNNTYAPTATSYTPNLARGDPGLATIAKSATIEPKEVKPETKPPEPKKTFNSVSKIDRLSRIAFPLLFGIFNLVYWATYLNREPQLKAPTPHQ

[12] = target: T4, Gamma-aminobutyric acid receptor subunit alpha-2 (Homo sapiens, UniProt P47869); test: Binding affinity to human recombinant GABAA alpha2 receptor assessed as inhibition constant incubated for 1 hrs by liquid scintillation counting analysis
T4 sequence (P47869 whole entry): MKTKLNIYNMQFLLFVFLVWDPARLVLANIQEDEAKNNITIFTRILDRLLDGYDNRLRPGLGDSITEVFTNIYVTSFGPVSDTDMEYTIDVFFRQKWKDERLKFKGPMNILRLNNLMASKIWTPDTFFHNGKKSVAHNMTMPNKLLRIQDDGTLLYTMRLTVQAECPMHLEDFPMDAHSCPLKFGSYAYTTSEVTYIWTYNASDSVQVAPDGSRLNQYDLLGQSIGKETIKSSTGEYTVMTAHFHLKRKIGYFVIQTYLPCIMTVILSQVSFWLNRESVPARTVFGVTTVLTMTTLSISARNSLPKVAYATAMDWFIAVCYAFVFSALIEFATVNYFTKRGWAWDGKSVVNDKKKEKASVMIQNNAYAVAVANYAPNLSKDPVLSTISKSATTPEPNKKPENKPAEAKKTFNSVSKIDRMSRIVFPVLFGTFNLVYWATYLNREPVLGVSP

[13] = target: T5, Gamma-aminobutyric acid receptor subunit alpha-3 (Homo sapiens, UniProt P34903); test: Binding affinity to human recombinant GABAA alpha3 receptor assessed as inhibition constant incubated for 1 hrs by liquid scintillation counting analysis
T5 sequence (P34903 whole entry): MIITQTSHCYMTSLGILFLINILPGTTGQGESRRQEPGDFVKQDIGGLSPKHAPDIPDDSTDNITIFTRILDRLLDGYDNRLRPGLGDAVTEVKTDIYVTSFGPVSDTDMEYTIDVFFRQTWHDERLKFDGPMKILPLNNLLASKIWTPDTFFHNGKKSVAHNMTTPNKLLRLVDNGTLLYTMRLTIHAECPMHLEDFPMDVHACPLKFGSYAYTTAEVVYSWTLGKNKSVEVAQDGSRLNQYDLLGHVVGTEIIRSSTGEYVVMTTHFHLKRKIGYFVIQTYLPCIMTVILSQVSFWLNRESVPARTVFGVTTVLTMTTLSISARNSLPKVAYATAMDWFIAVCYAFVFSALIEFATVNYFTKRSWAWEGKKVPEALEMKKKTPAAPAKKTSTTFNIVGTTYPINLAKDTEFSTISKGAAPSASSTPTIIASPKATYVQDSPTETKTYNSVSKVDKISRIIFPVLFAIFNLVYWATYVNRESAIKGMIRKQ

[14] = target: Gamma-aminobutyric acid receptor subunit alpha-4 (Homo sapiens, UniProt P48169); test: Binding affinity to human recombinant GABAA alpha4 receptor assessed as inhibition constant incubated for 1 hrs by liquid scintillation counting analysis
Chain of Gamma-aminobutyric acid receptor subunit alpha-4 (P48169 whole entry): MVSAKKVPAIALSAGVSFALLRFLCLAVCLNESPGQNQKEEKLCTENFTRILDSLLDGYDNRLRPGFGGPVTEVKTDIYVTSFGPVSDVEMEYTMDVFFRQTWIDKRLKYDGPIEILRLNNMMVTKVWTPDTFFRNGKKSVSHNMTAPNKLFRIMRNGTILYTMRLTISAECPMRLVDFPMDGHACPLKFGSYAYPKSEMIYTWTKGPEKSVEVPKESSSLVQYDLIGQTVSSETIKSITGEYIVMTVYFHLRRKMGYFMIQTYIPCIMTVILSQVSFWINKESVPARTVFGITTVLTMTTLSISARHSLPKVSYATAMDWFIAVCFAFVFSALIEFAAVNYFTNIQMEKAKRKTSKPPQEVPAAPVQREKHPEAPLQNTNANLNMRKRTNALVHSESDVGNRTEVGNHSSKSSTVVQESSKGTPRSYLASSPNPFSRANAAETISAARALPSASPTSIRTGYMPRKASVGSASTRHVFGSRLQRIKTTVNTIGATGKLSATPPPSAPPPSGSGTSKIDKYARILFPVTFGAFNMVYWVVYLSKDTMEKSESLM

[15] = target: T6, Gamma-aminobutyric acid receptor subunit alpha-5 (Homo sapiens, UniProt P31644); test: Binding affinity to human recombinant GABAA alpha5 receptor assessed as inhibition constant incubated for 1 hrs by liquid scintillation counting analysis
T6 sequence (P31644 whole entry): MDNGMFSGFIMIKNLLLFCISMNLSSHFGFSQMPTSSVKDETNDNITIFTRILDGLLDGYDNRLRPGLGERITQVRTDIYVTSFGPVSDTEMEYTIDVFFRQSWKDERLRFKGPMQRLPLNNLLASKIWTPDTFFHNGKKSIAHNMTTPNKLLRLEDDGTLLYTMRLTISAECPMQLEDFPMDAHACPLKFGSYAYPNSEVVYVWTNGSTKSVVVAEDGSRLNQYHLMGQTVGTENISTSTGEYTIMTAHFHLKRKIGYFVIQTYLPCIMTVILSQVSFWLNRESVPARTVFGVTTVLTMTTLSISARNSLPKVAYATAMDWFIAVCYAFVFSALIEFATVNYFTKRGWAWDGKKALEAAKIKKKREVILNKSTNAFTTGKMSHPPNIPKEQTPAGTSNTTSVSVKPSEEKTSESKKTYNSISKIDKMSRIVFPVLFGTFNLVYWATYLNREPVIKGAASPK

[16] = target: Gamma-aminobutyric acid receptor subunit alpha-6 (Homo sapiens, UniProt Q16445); test: Binding affinity to human recombinant GABAA alpha6 receptor assessed as inhibition constant incubated for 1 hrs by liquid scintillation counting analysis
Chain of Gamma-aminobutyric acid receptor subunit alpha-6 (Q16445 whole entry): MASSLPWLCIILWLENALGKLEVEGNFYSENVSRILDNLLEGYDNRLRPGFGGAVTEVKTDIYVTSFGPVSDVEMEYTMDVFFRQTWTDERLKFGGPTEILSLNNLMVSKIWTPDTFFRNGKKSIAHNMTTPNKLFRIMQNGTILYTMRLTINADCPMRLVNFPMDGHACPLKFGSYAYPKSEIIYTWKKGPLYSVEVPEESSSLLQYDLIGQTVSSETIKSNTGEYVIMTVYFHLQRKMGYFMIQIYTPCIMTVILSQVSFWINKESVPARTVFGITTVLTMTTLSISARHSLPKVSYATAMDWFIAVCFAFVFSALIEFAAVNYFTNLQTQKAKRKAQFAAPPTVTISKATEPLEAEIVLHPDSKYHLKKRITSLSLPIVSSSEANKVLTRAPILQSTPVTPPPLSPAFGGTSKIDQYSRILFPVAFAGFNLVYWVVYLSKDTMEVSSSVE

[17] = target: cGMP-specific 3',5'-cyclic phosphodiesterase (Homo sapiens, UniProt O76074); test: Binding affinity to PDE5 (unknown origin) assessed as inhibition constant

Chain of Glutamate receptor ionotropic, NMDA 2B (Q13224 whole entry, one chain of several): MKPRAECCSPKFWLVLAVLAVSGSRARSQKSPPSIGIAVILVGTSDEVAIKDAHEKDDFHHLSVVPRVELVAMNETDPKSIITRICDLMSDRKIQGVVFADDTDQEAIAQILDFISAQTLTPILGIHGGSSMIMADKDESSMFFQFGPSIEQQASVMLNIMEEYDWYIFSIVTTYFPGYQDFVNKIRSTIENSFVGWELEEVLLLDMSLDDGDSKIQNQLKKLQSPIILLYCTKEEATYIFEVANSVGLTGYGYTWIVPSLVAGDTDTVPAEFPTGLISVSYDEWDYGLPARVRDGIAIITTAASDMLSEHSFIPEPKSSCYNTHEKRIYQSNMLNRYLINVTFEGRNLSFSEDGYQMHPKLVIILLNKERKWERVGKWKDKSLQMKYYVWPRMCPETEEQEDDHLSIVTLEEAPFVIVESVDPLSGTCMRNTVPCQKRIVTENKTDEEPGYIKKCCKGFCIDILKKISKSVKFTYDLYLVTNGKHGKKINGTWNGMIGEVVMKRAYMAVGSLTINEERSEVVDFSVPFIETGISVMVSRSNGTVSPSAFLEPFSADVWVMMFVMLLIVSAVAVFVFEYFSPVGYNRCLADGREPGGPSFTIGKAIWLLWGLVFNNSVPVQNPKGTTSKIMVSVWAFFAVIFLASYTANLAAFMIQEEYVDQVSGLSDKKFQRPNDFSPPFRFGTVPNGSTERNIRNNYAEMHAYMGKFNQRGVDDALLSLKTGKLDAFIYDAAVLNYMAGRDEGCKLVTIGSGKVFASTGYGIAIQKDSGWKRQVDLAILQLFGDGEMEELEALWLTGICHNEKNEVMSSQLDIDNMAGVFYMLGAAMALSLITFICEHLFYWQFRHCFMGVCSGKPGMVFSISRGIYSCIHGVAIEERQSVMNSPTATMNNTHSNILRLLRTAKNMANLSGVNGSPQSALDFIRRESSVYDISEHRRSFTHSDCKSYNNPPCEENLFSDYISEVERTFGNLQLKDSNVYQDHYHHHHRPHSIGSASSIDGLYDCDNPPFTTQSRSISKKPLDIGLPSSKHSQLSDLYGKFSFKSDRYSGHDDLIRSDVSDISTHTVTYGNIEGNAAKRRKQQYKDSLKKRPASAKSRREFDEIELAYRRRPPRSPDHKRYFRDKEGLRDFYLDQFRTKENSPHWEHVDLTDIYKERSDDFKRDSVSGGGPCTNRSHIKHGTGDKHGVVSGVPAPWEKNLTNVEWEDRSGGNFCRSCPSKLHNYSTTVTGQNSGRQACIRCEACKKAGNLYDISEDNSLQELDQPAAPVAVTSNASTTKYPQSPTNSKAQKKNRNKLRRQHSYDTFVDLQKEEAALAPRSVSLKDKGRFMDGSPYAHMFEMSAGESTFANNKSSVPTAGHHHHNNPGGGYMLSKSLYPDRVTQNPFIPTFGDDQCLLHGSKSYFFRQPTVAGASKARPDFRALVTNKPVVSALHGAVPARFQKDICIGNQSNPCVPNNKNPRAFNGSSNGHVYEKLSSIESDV

IC50 [1]: 140 nM
SMILES: Oc1ccc2[nH]c3c(c2c1)CCN(CCCCc1ccccc1)C3

SMILES: Cn1c2ccccc2c2cc[n+](-c3ccc(Br)cc3Br)cc21
IC50 [2]: 110 nM
IC50 [3]: 110 nM

SMILES: COc1cccc2[nH]c3c(c12)CCN=C3
Ki [4]: 65 nM

IC50 [1]: 30000 nM
SMILES: O=C1CCC[C@@H]2c3[nH]c4ccccc4c3C[C@@H](CO)N12

Ki [5]: 44 nM
SMILES: C=CC(=O)N1CCc2c(n(CCCCN3CCN(c4ccccc4OC)CC3)c3ccccc23)C1

SMILES: Cc1ccc2c(c1)c1cc[n+](-c3ccccc3)cc1n2C
IC50 [6]: 420 nM
IC50 [7]: 17 µM
IC50 [2]: 420 nM

IC50 [1]: 50 nM
SMILES: Oc1ccc2c3c([nH]c2c1)CN(CCCCc1ccccc1)CC3

Ki [8]: 1400 nM
Ki [9]: 1400 nM
SMILES: c1ccc(-c2nccc3c2[nH]c2ccccc23)cc1

Ki [8]: 1500 nM
Ki [9]: 1500 nM
SMILES: c1ccc2cc(-c3nccc4c3[nH]c3ccccc34)ccc2c1

SMILES: COc1cccc2[nH]c3c(c12)CCN=C3C
Ki [4]: 65 nM

SMILES: COCc1c(C(=O)OC(C)C)ncc2[nH]c3ccc(OCc4ccccc4)cc3c12 [ABECARNIL]
IC50 [10]: 1 nM
Ki [11]: 1 nM
Ki [12]: 2 nM
Ki [13]: 4 nM
Ki [14]: 1200 nM
Ki [15]: 5 nM
Ki [16]: 6.4 µM

Ki [8]: 100 nM
Ki [4]: 200 nM
Ki [9]: 100 nM
SMILES: COc1ccc2[nH]c3c(-c4cn(C)c5ccccc45)nccc3c2c1

Ki [17]: 64 nM
SMILES: O=C(c1ccc(-c2ccc([N+](=O)[O-])cc2)o1)N1CCc2c([nH]c3ccccc23)C1c1ccc2c(c1)OCO2 (stereo not drawn)

IC50 [1]: 87 nM
SMILES: Oc1ccc(CCCN2CCc3c([nH]c4ccccc34)C2)cc1

Ki [17]: 9 nM
SMILES: COc1ccc(-c2cnc(N3CC(=O)c4c([nH]c5ccccc45)C3c3ccc4c(c3)OCO4)nc2)cc1OC (stereo not drawn)
